Test [1] has as its system BV2 microglial cells. The experiment in a line: Poly I:C-induced TNFα release by BV2 microglia. It counts as cell-based, murine. As to conditions: 5 and 10 µM. The protocol:
(§1) The BV2 cells are cultured at 37° C. in a humidified atmosphere with 5% CO2 in high D-glucose (4.5 g/L) Dulbecco’s modified Eagle’s medium (Sigma, Rehovot, Israel) supplemented with 5% heat-inactivated fetal bovine serum, streptomycin (100 µg/ml), and penicillin (100 units/ml) and sodium pyruvate (1 mM; all from Biological Industries Ltd., Kibbutz Beit Haemek, Israel). 24 hours before experiments with LPS stimulation, the BV2 cells are split into 24 well plates, 2×10^5 cells per well, covered with 1 ml of growth medium and allowed to attach overnight. 24 hr before experiments with α-synuclein, the BV2 cells are split into 96-well plates, 50,000 (5×10^4) cells per well, covered with 200 µl of growth medium and allowed to attach overnight. […]

Test [2] deals with BV2 microglial cells. The experiment in a line: Poly I:C-induced IL-6 release by BV2 microglia. As to conditions: 10 µM. It counts as cell-based, murine. The protocol: as §1
Test [3] has as its system treatment-resistant major depression patients. The experiment in a line: Clinical trial of celecoxib plus CBD in treatment-resistant major depression patients. The format is in vivo, human. As to conditions: celecoxib or CBD, each by itself.
Description: In the current study, the antidepressant effect of a combination of celecoxib and CBD is tested in a randomized, prospective, double-blind clinical trial in 80 treatment-resistant major depression patients of both genders, in the age range of 23-70 years. […] The safety and efficacy of celecoxib, CBD and their combination vs. vehicle placebo are assessed. Primary endpoints include the changes from baseline to post-treatment in overall depression levels, and particularly in the vegetative and somatic symptoms of depression, which are highly associated with the inflammatory status of the patients. Secondary endpoints include the changes from baseline to post-treatment in anxiety levels, overall functioning and clinical impression, as well as anhedonia.
Treatment-resistant depressed patients undergo psychological assessment using the Montgomery-Asberg Depression Rating Scale (MADRS), with further analysis of the 3 specific factors of this scale (vegetative symptoms, dysphoria, and retardation), the Somatic Symptoms Scale-8, the Hamilton Anxiety Rating Scale (HARS), the Clinical Global Improvement and Severity Scales (CGI-I and CGI-S), and the Snaith-Hamilton Pleasure Scale (SHAPS). Subjects are treated twice daily (per os) with either a formulation containing celecoxib and CBD or with vehicle placebo. […]
The test system of test [4] is LPS-injected mice. The test can be described thus: Porsolt forced swim test in LPS-injected mice. It counts as in vivo. The following applies: young-adult male mice. The protocol: Given the mixed effects that CBD administration had in the reversal of LPS-induced depressive-like behavior in young-adult mice, the effects of CBDA by itself, and in combination with CBD, were examined in young-adult (2.5-3.5 months old) female and male mice. Mice were injected (i.p.) with either vehicle, CBDA or CBD and CBDA combination, and 1 hr later with LPS (330 µg/kg). Following injections, the mice were examined according to the methods described in Example 8, apart from the Porsolt forced swim test that replaced the open field test in male mice. In this test, mice were placed in a plastic cylinder (with a height of 20 cm and diameter of 50 cm), filled with 25° C. water. The time spent immobile, defined as the absence of all movement except for motions required to maintain head above water, and the latency for the first immobility episode, were recorded for 6 min, and manually analyzed by an experienced experimenter.

`C=C(C)[C@@H]1CCC(C)=C[C@H]1c1c(O)cc(CCCCC)cc1O` [CBD, cannabidiol]: in test [1], the “Poly I:C-induced TNFα release” value is recorded as “significantly decreased”. Moreover, the “Poly I:C-induced IL-6” value in test [2] is on record as “markedly decreased”. In addition, the “changes in depression, anxiety, anhedonia and subjective improvement” value in test [3] is listed as “only mild changes”.

Regarding `C=C(C)[C@@H]1CCC(C)=C[C@H]1c1c(O)cc(CCCCC)c(C(=O)O)c1O` [CBDA, Cannabidiolic acid], the “time spent in immobility, forced swim test” value in test [4] (CBDA 1, 5 mg/kg, CBD 25 and CBDA 1 mg/kg) is recorded as “no significant difference”. Further, the “latency to the first episode of immobility” value in test [4] (printed: CBDA 1 mg/kg) was “significantly increased”.
